The test system of data set [1] is ERK5 autophosphorylation in HeLa cells. Kind of data set: EGF-stimulated HeLa cell assay (ERK5 autophosphorylation, Western blot). It counts as cell-based. As to conditions: Homo sapiens, average where more than one data point. The method, then: EGF-Stimulated HeLa Cell Assay
HeLa cells were serum starved overnight followed by treatment with ERK5 inhibitors for 1 hr. Cells were then stimulated with 100 ng/ml EGF for 10 or 15 min. The cells were harvested and lysed at 4° C. for 5-10 min in Laemmli buffer containing Halt protease and […] (Pierce). The lysates were boiled for 10 min at 100° C. Twenty microliters sample was run on 6% or 7.5% Tris-glycine gels and transferred to nitrocellulose. […] The IC50 was calculated from densitometry of top bands.

Another data set deals with T1, ERK5 (Homo sapiens, UniProt Q13164).
T1 construct: made in house
Kind of data set: ERK5 IMAP assay (fluorescence polarisation). It counts as biochemical. (In general: Fluorescence polarisation rises when a labelled molecule tumbles more slowly, as on binding a larger partner.)

Data set [2] concerns ERK5 (HA-ERK5 wt activated by EGFP-MEK5D, MEF2D-Gal4/Gal4-Luc reporter) in HEK293 cells. Description: Dual-luciferase reporter assay (ERK5 reporter), reverse-transfected HEK293 cells. As to conditions: Homo sapiens, HEK293, read-out: ERK 5 Reporter Assay. Background: Reporter assays use an easily measured gene product as a stand-in for the process of interest.
Procedure: Trypsinizing of Adherent Cell Colonies
Cells were regularly passaged in order to maintain optimum colony sizes on plates. In order to do this, and to harvest cells for use in the dual-luciferase reporter assay, adherent cells were lifted from tissue culture dishes. Cell media was removed via aspiration, and the cell monolayer was washed with phosphate buffered saline (PBS) solution (10 mL), which was then aspirated.
Reverse Transfection of HEK293 Cells
Preparation of EGFP Control (C3) Working Solution (for 1×96 Well Plate)
Preparation of HEK293 Cells for Reverse Transfection
Trypsinized HEK293 cells were re-suspended in 19 mL of fresh cell media and counted using haemocytometry. Cells were then diluted with fresh cell media to achieve a final cell concentration of 2×10^5 cells/mL. 1237.5 μL and 7425 μL of this cell media was added to the C3 and 5D working solutions respectively. 100 μL of the transfected cells were then aliquoted into the appropriate wells in a 96-well opaque sided tissue culture plate, and incubated at 37° C. for 6 h.
Addition of Compounds to HEK293 Cells
4 compounds was assayed per 96-well plate. For each compound, 1 mL of growth media was added to eight 1.5 mL Eppendorf® tubes. 6 μL of DMSO was added to two tubes for C3 and blank 5D wells, and 6 μL of the relevant compound stock solution was added to the 6 remaining tubes. […] Solutions of drug in media were thoroughly mixed, and 100 μL of the relevant compound was transferred (in triplicate) to the 96-well plate containing transfected HEK293 cells using an electronic multichannel pipette with variable tip spacing. Sealed plates were incubated at 37° C. for 24 h. Final compound concentrations were as follows; 30 μM, 10 μM, 3 μM, 1 μM and 0.3 μM.
15 mL of 1× passive lysis buffer (PLB) was prepared using 5×PLB (Dual-Luciferase Reporter Assay System, Promega® E1960), diluting with H2O. Assay plates prepared were removed from the incubator and the growth media removed by aspiration.
Data set [3] concerns HA-ERK5-ΔP493 (MEK5D-activated, MEF2D-Gal4/Gal4-Luc reporter) in HEK293T cells. Kind of data set: Truncated dual-luciferase reporter assay, HEK293T forward transfection. As to conditions: Homo sapiens, HEK-293T, average where more than one data point, read-out: Truncated ERK 5 Reporter Assay. The format is cell-based. The method, then: (§1) Truncated Dual-Luciferase Reporter Assay
(§2) HEK293T and HeLa Forward Transfection
Constitutively-active, EGFP-tagged MEK5 (EGFP-MEK5D; 0.5 μg/μl), an EGFP-tagged construct containing no MEK5D (EGFP-C3; 0.5 μg/μl), and HA-tagged ERK5 with C-terminal truncation (HA-ERK5-ΔP493; 0.51 μg/μl) were diluted separately in sterile distilled water. Plasmid DNA and Lipofectamine 2000 (Invitrogen) were separately diluted in Opti-MEM growth media (reduced serum medium, Invitrogen), and incubated at room temperature for 5 min. Plasmid DNA (Tube A) and Lipofectamine 2000 (Tube B) were then combined and incubated for 20 min at room temperature to complex. Cells were then transfected by addition of 16 μl of the respective transfection mixture: 3 wells with EGFP-C3-containing (control) and 21 wells with MEK5D-containing transfection mixture (final volume, 100 μl). Cells were subsequently incubated for 4 h at 37° prior to addition of potential ERK5-inhibitory compounds.
Addition of Compounds to ERK5-Transfected HEK293T or HeLa Cells
Potential ERK5-inhibitory compounds were prepared as a 2× solution by addition of 2 μl compound (or DMSO as control) to 1 ml standard culture medium. Compounds were tested in triplicate at a concentration range of 0.003 μM, 0.01 μM, 0.03 μM, 0.1 μM, 0.3 μM and 1 μM (or 0.03 μM, 0.1 μM, 0.3 μM, 1 μM, 3 μM and 10 μM for BIX02189) by addition of 100 μl 2× solution to 100 μl transfected cells (final DMSO, 0.1% v/v). Cells were incubated for 24 h at 37° C.
(§3) Cell Lysis and Luciferase Quantification
(§4) After 24 h incubation in the absence (control) or presence of potential inhibitor, the culture medium was aspirated and cells lysed in 20 μl 1× passive lysis buffer (Dual-Luciferase Reporter Assay System, Promega) for a minimum of 15 min with agitation. Lysates were further processed immediately or stored at −80° C. Cellular inhibition of ERK5 was quantified using the Dual-Luciferase Reporter Assay System (Promega). Luciferase assay buffer/Luciferase assay substrate and Stop and Glo assay buffer/Stop and Glo substrate were prepared according to the manufacturer's instructions. Luciferase reagent (50 μl/well) was added immediately before luminescence detection using a FLUOstar Omega plate reader (BMG Labtech). Stop and Glo reagent (50 μl/well) was subsequently added, and the Renilla luciferase signal (transfection efficiency control) quantified.
The ERK5-specific signalling activity was calculated by subtraction of the EGFP-C3 luciferase signal from the EGFP-MEK5D-induced luminescence. Luminescence in the absence of potential ERK5 inhibitor (DMSO control) was taken as 100% ERK5 activity. […] Unless stated otherwise, data are mean±standard deviation of three independent experiments.

Data set [4] has as its system HA-ERK5-ΔP493 (MEK5D-activated, MEF2D-Gal4/Gal4-Luc reporter) in HeLa cells. Description: Truncated dual-luciferase reporter assay, HeLa forward transfection. It counts as cell-based. As to conditions: Homo sapiens, value with spread. As for the experimental part:
as §1, §2
HEK293T or HeLa cells were seeded in 96-well luminescence (white) plates (1.68×10^4/well in 84 μl standard culture medium) and incubated overnight at 37° C. in a humidified atmosphere of 5% CO2 in air. Plasmid DNA mastermix containing MEF2D-Gal4 (0.25 μg/μl), Gal4-Luc (1.25 μg/μl) and Renilla luciferase (0.1 μg/μl) was prepared in sterile distilled water. Constitutively-active, EGFP-tagged MEK5 (EGFP-MEK5D; 0.5 μg/μl), an EGFP-tagged construct containing no MEK5D (EGFP-C3; 0.5 μg/μl), and HA-tagged ERK5 with C-terminal truncation (HA-ERK5-ΔP493; 0.51 μg/μl) were diluted separately in sterile distilled water. Plasmid DNA and Lipofectamine 2000 (Invitrogen) were separately diluted in Opti-MEM growth media (reduced serum medium, Invitrogen), and incubated at room temperature for 5 min. Plasmid DNA (Tube A) and Lipofectamine 2000 (Tube B) were then combined and incubated for 20 min at room temperature to complex. […]
as §3
as §4, with “Lysates were further processed immediately or stored at −80° C.” left out, “Luciferase assay buffer/Luciferase assay substrate and Stop and Glo assay buffer/Stop and Glo substrate were prepared according to the manufacturer's instructions.” left out
The ERK5-specific signalling activity was calculated by subtraction of the EGFP-C3 luciferase signal from the EGFP-MEK5D-induced luminescence. Luminescence in the absence of potential ERK5 inhibitor (DMSO control) was taken as 100% ERK5 activity. […]

The test system of data set [5] is bFGF-induced angiogenesis. As to conditions: matrigel plug; cited from earlier work.
For data set [6] the following is noted: cited from earlier work.
Data set [7] deals with tumour cell lines and endothelial cells. As to conditions: cited from earlier work.
Another data set relates to human and murine tumour. As to conditions: cited from earlier work.
Where [8] appears, read: average (e.g. geometric mean) where more than one data point, read-out: ERK5 IC50.
The mark [9] stands for this setting: value ± spread, second part of table, read-out: ERK5 IMAP IC50.

Where two headings read alike, the source gives them in different places.

T1 sequence (Q13164 whole entry): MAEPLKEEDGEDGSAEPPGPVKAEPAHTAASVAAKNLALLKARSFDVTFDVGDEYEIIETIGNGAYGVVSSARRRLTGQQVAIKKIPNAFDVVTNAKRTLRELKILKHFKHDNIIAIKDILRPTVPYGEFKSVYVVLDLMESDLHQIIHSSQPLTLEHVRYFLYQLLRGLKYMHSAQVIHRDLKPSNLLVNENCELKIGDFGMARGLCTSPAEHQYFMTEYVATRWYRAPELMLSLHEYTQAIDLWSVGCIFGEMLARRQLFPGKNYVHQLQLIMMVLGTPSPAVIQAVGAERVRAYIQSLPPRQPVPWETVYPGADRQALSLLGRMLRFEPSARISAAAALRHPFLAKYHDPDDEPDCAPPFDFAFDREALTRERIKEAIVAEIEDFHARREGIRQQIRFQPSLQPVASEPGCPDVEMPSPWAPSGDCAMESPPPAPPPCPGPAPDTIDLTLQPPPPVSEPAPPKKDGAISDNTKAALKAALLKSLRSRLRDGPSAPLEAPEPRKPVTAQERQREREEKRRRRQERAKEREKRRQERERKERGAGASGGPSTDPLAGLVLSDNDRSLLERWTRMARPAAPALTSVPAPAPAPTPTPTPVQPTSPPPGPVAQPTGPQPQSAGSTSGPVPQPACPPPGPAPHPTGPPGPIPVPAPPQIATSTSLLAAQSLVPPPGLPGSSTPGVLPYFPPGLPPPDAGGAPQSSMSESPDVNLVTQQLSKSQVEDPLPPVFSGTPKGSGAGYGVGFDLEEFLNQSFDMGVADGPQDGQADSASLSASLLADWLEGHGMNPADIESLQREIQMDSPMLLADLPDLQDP

`O=C(Nc1cnc(NC2CCN(C3CC3)CC2)nc1)c1cc(C(=O)c2c(Cl)ccc(Cl)c2F)c[nH]1` [Example 25, N-(2-((1-Cyclopropylpiperidin-4-yl)amino)pyrimidin-5-yl)-4-(3,6-dichloro-2-fluorobenzoyl)-1H-pyrrole-2-carboxamide]: the IC50 in [1] was found to be 5100 nM; at ERK5 (setting [8]), 49.7 nM.

Regarding `O=C(Nc1cnn(C2CNC2)c1)c1cc(C(=O)c2c(Cl)ccc(Cl)c2F)c[nH]1` [Example 54, N-(1-(Azetidin-3-yl)-1H-pyrazol-4-yl)-4-(3,6-dichloro-2-fluorobenzoyl)-1H-pyrrole-2-carboxamide], the IC50 in [1] was determined as 140 nM; at ERK5 (setting [8]), 31.7 nM.

As for `COc1ccc(Cl)c(C(=O)c2c[nH]c(C(=O)Nc3ccc(N4CCNCC4)nc3)c2)c1F` [Example 69, 4-(6-Chloro-2-fluoro-3-methoxybenzoyl)-N-(6-(piperazin-1-yl)pyridin-3-yl)-1H-pyrrole-2-carboxamide], the IC50 in data set [1] was determined as 700 nM; at ERK5 (setting [8]), 15.7 nM.

Turning to `COc1ccc(Cl)c(C(=O)c2c[nH]c(C(=O)NC3CCN(C)CC3)c2)c1F` [Example 70, 4-(6-chloro-2-fluoro-3-methoxybenzoyl)-N-(1-methylpiperidin-4-yl)-1H-pyrrole-2-carboxamide], the results for the IC50 (in [1]; in [2]; on ERK5 (setting [8])) were 1700 nM, 477 nM and 57.9 nM, respectively.

For the compound `COc1ccc(Cl)c(C(=O)c2c[nH]c(C(=O)Nc3cccnc3)c2)c1F` [Example 72, 4-(6-chloro-2-fluoro-3-methoxybenzoyl)-N-(pyridin-3-yl)-1H-pyrrole-2-carboxamide], the IC50 came to 1900 nM in data set [1], 2980 nM in data set [2] and 90.8 nM on ERK5 (setting [8]).

`CCN(CC)CCNc1ncc(NC(=O)c2cc(C(=O)c3c(Cl)ccc(Cl)c3F)c[nH]2)cn1` [Example 100, 4-(3,6-Dichloro-2-fluorobenzoyl)-N-(2-((2-(diethylamino)ethyl)amino)pyrimidin-5-yl)-1H-pyrrole-2-carboxamide]: the IC50 was 490 nM in [1], 151 nM in [3] and 19.3 nM on ERK5 (setting [8]).

With `CN(c1ccc(NC(=O)c2cc(C(=O)c3c(Cl)ccc(Cl)c3F)c[nH]2)cn1)C1CCNCC1` [Example 107, 4-(3,6-Dichloro-2-fluorobenzoyl)-N-(6-(methyl(piperidin-4-yl)amino)pyridin-3-yl)-1H-pyrrole-2-carboxamide], the values for the IC50 (in data set [1]; at ERK5 (setting [8])) were 450 nM and 24.6 nM, respectively.

On to `O=C(Nc1ccc(OC2CCNCC2)nc1)c1cc(C(=O)c2c(Cl)ccc(Cl)c2F)c[nH]1` [Example 109, 4-(3,6-Dichloro-2-fluorobenzoyl)-N-(6-(piperidin-4-yloxy)pyridin-3-yl)-1H-pyrrole-2-carboxamide], for which the IC50 in [1] was determined as 50 nM; in [3], 92 nM; on ERK5 (setting [8]), 10.8 nM.

In the case of `O=C(Nc1ccc(CC2CCNCC2)nc1)c1cc(C(=O)c2c(Cl)ccc(Cl)c2F)c[nH]1` [Example 111, 4-(3,6-Dichloro-2-fluorobenzoyl)-N-(6-(piperidin-4-ylmethyl)pyridin-3-yl)-1H-pyrrole-2-carboxamide], the IC50 in data set [1] was 290 nM; on ERK5 (setting [8]) it was 5.1 nM.

As to `O=C(Nc1cccnc1)c1cc(C(=O)c2c(Cl)ccc(Cl)c2F)c[nH]1` [Example 172, 4-(3,6-Dichloro-2-fluorobenzoyl)-N-(pyridin-3-yl)-1H-pyrrole-2-carboxamide], the IC50 in data set [1] was 190 nM; in data set [2] it was 598 nM; at ERK5 (setting [8]) it was 65.6 nM.

Take `COCCN(C)Cc1ccc(NC(=O)c2cc(C(=O)c3c(Cl)ccc(Cl)c3F)c[nH]2)cn1` [Example 278]: the IC50 in data set [3] stood at 40 nM; at ERK5 (setting [8]), 34 nM.

Take `O=C(Nc1ccc(CN2CCC(O)CC2)nc1)c1cc(C(=O)c2c(Cl)ccc(Cl)c2F)c[nH]1` [Example 282]: the IC50 in data set [3] amounted to 44 nM; at ERK5 (setting [8]), 6.7 nM.

Consider `O=C(Nc1ccc(CN2CCCCC2)nc1)c1cc(C(=O)c2c(Cl)ccc(Cl)c2F)c[nH]1` [Example 284, 4-(3,6-Dichloro-2-fluorobenzoyl)-N-(6-(piperidin-1-ylmethyl)pyridin-3-yl)-1H-pyrrole-2-carboxamide], for which the IC50 in data set [3] amounted to 13 nM; at ERK5 (setting [8]), 9 nM.

Regarding `Cn1cc(NC(=O)c2cc(C(=O)c3c(F)cccc3F)c[nH]2)cn1` [Example 285, 4-(2,6-Difluorobenzoyl)-N-(1-methyl-1H-pyrazol-4-yl)-1H-pyrrole-2-carboxamide], the IC50 in [4] stood at 671 nM; on ERK5 (setting [9]) it was 1560 ± 50 nM.

For `Cc1cccc(F)c1C(=O)c1c[nH]c(C(=O)Nc2cnn(C)c2)c1` [Example 286, 4-(2-Fluoro-6-methylbenzoyl)-N-(1-methyl-1H-pyrazol-4-yl)-1H-pyrrole-2-carboxamide], the IC50 in [4] was determined as 2480 nM; on ERK5 (setting [9]), 7070 ± 20 nM.

Consider `Cn1cc(NC(=O)c2cc(C(=O)c3ccccc3F)c[nH]2)cn1` [Example 287, 4-(2-Fluorobenzoyl)-N-(1-methyl-1H-pyrazol-4-yl)-1H-pyrrole-2-carboxamide], for which the IC50 came to 3200 nM in data set [4] and 7550 ± 300 nM at ERK5 (setting [9]).

As to `CCOc1cc(N2CCC(O)CC2)ccc1Nc1ncc2c(n1)N(C)c1ccccc1C(=O)N2C` [XMD8-92], in data set [5], the blood vessel formation entry is recorded as “completely abrogated blood vessel formation”. Besides, in [6], the tolerability in mice result is recorded as “well tolerated”. Moreover, the anti-proliferative activity result in data set [7] is reported as “modest anti-proliferative activity”. Further, the tumour growth entry in the data set on human and murine tumour (human and murine tumours in mice) was “pronounced retardation of both human and murine tumour growth”. In addition, the “inhibition of tumour ERK5” value in the data set with human and murine tumour (mice) is “inhibited tumour ERK5”.
